Experimental findings from US9840510B1, “Pyrazolo[1,5-a]pyrimidinyl carboxamide compounds and their use in the treatment of medical disorders” (Lysosomal Therapeutics Inc., priority 2016, dated 2017) are described below.

In brackets after ≈: the same amount, converted by molar mass.

A short description of the data set: Compound solubility in water. In kind it is physicochemical.

In general, solubility refers to the concentration that dissolves in the medium under given conditions. Low readings indicate a poorly soluble substance, high ones a readily soluble substance. `Cc1cc(-c2occc2C#N)nc2c(C(=O)NC(C3CC3)C(F)(F)F)cnn12` (stereo not drawn) [III-250] registered a solubility of 0.4 µg/mL (≈ 1.03 µM).

Turning to `Cc1cc(-c2cc(C)n3ncc(C(=O)N[C@H](C4CC4)C(F)(F)F)c3n2)on1` [III-343], the concentration in solution (solubility) came to 1.5 µg/mL (≈ 3.95 µM).

Compound `Cc1cc(-c2noc(C(C)C)n2)nc2c(C(=O)N[C@@H](C3CC3)C(F)(F)F)cnn12` [III-394] yielded a solubility of 0.7 µg/mL (≈ 1.71 µM).

Compound `Cc1cncc(-c2cc(C)n3ncc(C(=O)N[C@H](C4CC4)C(F)(F)F)c3n2)c1` [III-276] showed a solubility of 1.8 µg/mL (≈ 4.62 µM).

On to `Cc1cc(-c2cccnc2)nc2c(C(=O)NC(C3CC3)C(F)(F)F)cnn12` (stereo not drawn) [III-35], for which the solubility came out at 6.5 µg/mL (≈ 17.3 µM).

For the compound `Cc1cc(-c2ccc(F)cc2C#N)nc2c(C(=O)NC(C3CC3)C(F)(F)F)cnn12` (stereo not drawn) [III-151], the concentration in solution (solubility) was 0.1 µg/mL (≈ 0.24 µM).

`Cc1cc(-c2cccc(F)c2)nc2c(C(=O)NC(C3CC3)C(F)(F)F)cnn12` (stereo not drawn) [III-111] came in with a solubility of 0.07 µg/mL (≈ 0.178 µM).

Regarding `Cc1cc(-c2ccc(F)nc2)nc2c(C(=O)NC(C3CC3)C(F)(F)F)cnn12` (stereo not drawn) [III-84], the solubility stood at 0.8 µg/mL (≈ 2.03 µM).

Compound `Cc1cc(-c2ccc(F)cc2C#N)nc2c(C(=O)NC(C)C(F)(F)F)cnn12` (stereo not drawn) [III-154] had a solubility of 0.7 µg/mL (≈ 1.79 µM).

Turning to `Cc1cc(-c2cnccc2C(F)(F)F)nc2c(C(=O)N[C@H](C3CC3)C(F)(F)F)cnn12` [III-353], the solubility turned out to be 8.3 µg/mL (≈ 18.7 µM).

The compound `Cc1cc(Cl)nc2c(C(=O)NC(C)(C)C3CC3)cnn12` [III-15] registered a solubility of 14.1 µg/mL (≈ 48.2 µM).

`Cc1cc(-c2cc(C)n3ncc(C(=O)N[C@@H](C)C4CC4)c3n2)sn1` [III-346]: the concentration in solution (solubility) came to 18.8 µg/mL (≈ 55.1 µM).

`Cc1cc(-c2cccc(C#N)c2)nc2c(C(=O)NC(C3CC3)C(F)(F)F)cnn12` (stereo not drawn) [III-72]: the solubility is 0.1 µg/mL (≈ 0.25 µM).

Compound `Cc1cc(-c2ccc(C(F)(F)F)nc2)nc2c(C(=O)NC(C)C(F)(F)F)cnn12` (stereo not drawn) [III-288] displayed a solubility of 1.4 µg/mL (≈ 3.35 µM).

As to `COc1cc(F)ccc1-c1cc(C)n2ncc(C(=O)N[C@@H](C)C3CC3)c2n1` [III-146], the solubility stood at 0.9 µg/mL (≈ 2.44 µM).

Take `COc1ccc(F)c(-c2cc(C)n3ncc(C(=O)N[C@H](C)C(F)(F)F)c3n2)c1` [III-97]: the concentration in solution (solubility) was 0.2 µg/mL (≈ 0.505 µM).

`Cc1cc(-c2cccnc2)nc2c(C(=O)N[C@H](C3CC3)C(F)(F)F)cnn12` [III-88]: the solubility is 14.8 µg/mL (≈ 39.4 µM).

The compound `Cc1cc(-c2cccc(Cl)c2)nc2c(C(=O)NC(C)C(F)(F)F)cnn12` (stereo not drawn) [III-64] came in with a solubility of 6.2 µg/mL (≈ 16.2 µM).

In turn, `Cc1cc(-c2cccnc2)nc2c(C(=O)N[C@H](C)c3ccc(Cl)cc3)cnn12` [III-37] gave a solubility of 2.1 µg/mL (≈ 5.36 µM).

The compound `Cc1cc(-c2cncc(F)c2)nc2c(C(=O)N[C@H](C3CC3)C(F)(F)F)cnn12` [III-126] had a solubility of 1.8 µg/mL (≈ 4.58 µM).

`Cc1cc(-c2ccc3nc[nH]c3c2)nc2c(C(=O)NC(C3CC3)C(F)(F)F)cnn12` (stereo not drawn) [III-307] gave a solubility of 0.3 µg/mL (≈ 0.724 µM).

`Cc1cc(-c2cccc(F)c2)nc2c(C(=O)N[C@@H](C)C(F)(F)F)cnn12` [III-362] yielded a solubility of 0.6 µg/mL (≈ 1.64 µM).

With `COc1cc(F)ccc1-c1cc(C)n2ncc(C(=O)NC(C)C(F)(F)F)c2n1` (stereo not drawn) [III-150], the concentration in solution (solubility) was 0.7 µg/mL (≈ 1.77 µM).

`Cc1cc(-c2ccc3c(c2)OCO3)nc2c(C(=O)NC(C)C(F)(F)F)cnn12` (stereo not drawn) [III-289] yielded a solubility of 0.8 µg/mL (≈ 2.04 µM).

In turn, `Cc1cc(NC2CC2)nc2c(C(=O)N[C@@H](C)C3CC3)cnn12` [III-166] came in with a solubility of 10.9 µg/mL (≈ 36.4 µM).

The compound `Cc1cc(-c2nccs2)nc2c(C(=O)NC(C3CC3)C(F)(F)F)cnn12` (stereo not drawn) [III-209] came in with a solubility of 1.2 µg/mL (≈ 3.15 µM).

The compound `Cc1cc(-c2ccc(F)cn2)nc2c(C(=O)NC(C3CC3)C(F)(F)F)cnn12` (stereo not drawn) [III-204] came in with a solubility of 0.1 µg/mL (≈ 0.254 µM).

Take `Cc1nc(-c2cc(C)n3ncc(C(=O)NC(C4CC4)C(F)(F)F)c3n2)co1` (stereo not drawn) [III-249]: the concentration in solution (solubility) came to 0.6 µg/mL (≈ 1.58 µM).

In the case of `Cc1cc(-c2cccc(F)c2)nc2c(C(=O)N[C@H](C)C(F)(F)F)cnn12` [III-361], the solubility worked out at 0.7 µg/mL (≈ 1.91 µM).

In the case of `Cc1cc(-c2cncc(Cl)c2)nc2c(C(=O)NC(C3CC3)C(F)(F)F)cnn12` (stereo not drawn) [III-119], the concentration in solution (solubility) came to 0.08 µg/mL (≈ 0.195 µM).
